Experimental data reported in patent US20060025566A1, “Macrocyclic modulators of the ghrelin receptor” (Tranzyme Pharma Inc., priority 2003, published 2006).
Where two headings read alike, the source gives them in different places.

How the values were obtained:
[1] = biological target: human ghrelin receptor (hGHS-R1a) (Homo sapiens, UniProt Q92847); experiment: Aequorin functional assay (ghrelin receptor), CHO-K1 cells co-expressing Gα16 and aequorin; type: cell-based; details: functional (agonist) activity, standard method; TFA salts unless otherwise noted
Sequence of human ghrelin receptor (hGHS-R1a) (Q92847 whole entry): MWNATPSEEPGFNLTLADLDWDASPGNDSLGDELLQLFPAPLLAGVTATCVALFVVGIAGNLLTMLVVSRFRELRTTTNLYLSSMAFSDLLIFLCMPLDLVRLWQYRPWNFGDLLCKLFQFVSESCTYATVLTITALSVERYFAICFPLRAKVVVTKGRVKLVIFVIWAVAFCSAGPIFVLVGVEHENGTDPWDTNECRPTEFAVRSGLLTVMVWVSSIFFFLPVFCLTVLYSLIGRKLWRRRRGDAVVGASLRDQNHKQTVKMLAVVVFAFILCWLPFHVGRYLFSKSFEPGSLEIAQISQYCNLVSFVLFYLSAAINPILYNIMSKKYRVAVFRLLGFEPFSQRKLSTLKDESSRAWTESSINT
Text: Coelenterazine (Molecular Probes, Leiden, The Netherlands). […] Compound Handling
• 1. […] Key Aspects of Method • 1. […] Results

motilin receptor = motilin receptor (Homo sapiens, UniProt O43193); experiment: Selectivity for the ghrelin receptor versus the motilin receptor; type: binding
Sequence of motilin receptor (O43193 whole entry): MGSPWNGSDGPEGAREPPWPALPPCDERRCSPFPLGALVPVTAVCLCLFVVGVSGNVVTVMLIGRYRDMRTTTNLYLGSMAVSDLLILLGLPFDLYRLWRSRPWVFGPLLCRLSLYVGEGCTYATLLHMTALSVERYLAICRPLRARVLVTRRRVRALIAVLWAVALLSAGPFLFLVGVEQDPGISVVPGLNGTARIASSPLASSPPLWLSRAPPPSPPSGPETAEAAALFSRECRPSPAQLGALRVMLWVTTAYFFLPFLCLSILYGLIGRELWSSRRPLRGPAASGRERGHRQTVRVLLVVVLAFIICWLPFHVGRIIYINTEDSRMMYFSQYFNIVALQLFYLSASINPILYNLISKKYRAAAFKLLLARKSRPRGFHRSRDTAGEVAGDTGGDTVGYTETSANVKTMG
Text: The level of agonist activity and selectivity for representative compounds of the invention are shown below in Table 4.

[2] = biological target: T1, human growth hormone secretagogue receptor (hGHS-R1a) (Homo sapiens, UniProt Q92847); experiment: Competitive radioligand binding assay (ghrelin receptor), [125I]-ghrelin displacement on GHS-R/HEK 293 membranes; details: read-out: Ki
T1 construct: purchased PerkinElmer BioSignal #RBHGHSM, lot#1887; host or cells: HEK-293, stably transfected (membranes)
T1 sequence (Q92847 whole entry): as the sequence (Q92847 whole entry) above

[3] = binding activity at the human ghrelin receptor, [125I]-ghrelin displacement
[4] = binding activity, standard method, TFA salts unless otherwise noted
[5] = binding activity at the human ghrelin receptor, [125I]-ghrelin competition, GHS-R/HEK 293 membranes

How did the EC50 [1] turn out when `CC1C(=O)NC(Cc2ccc(F)cc2)C(=O)NCCCc2ncccc2OCCNC(C2CC2)C(=O)N1C` (single isomer, unassigned) [306a] was run?
Its EC50 is 1 to 100 nM.

And the Selectivity (motilin receptor)?
Its Selectivity is 714/1.

And the Ki [2, 3]?
The Ki was 10 to 100 nM.

What about the Ki [2, 4] of the same compound?
Its Ki is 10 to 100 nM.

What does the source list for `CC1C(=O)NC(Cc2ccc(F)cc2)C(=O)NCC2CC2c2ccccc2OCCNC(C2CC2)C(=O)N1C` (single isomer, unassigned) [389a]?
EC50 [1]: 100 to 1000 nM; Selectivity (motilin receptor): 450/1; Ki [2, 4]: 10 to 100 nM

Which results are given for `CC(C)C[C@@H]1NCCOc2ccccc2C=CCNC(=O)[C@H](Cc2ccccc2Cl)NC(=O)C2(CCCC2)NC1=O` (stereo in doubt) [compound 20]?
EC50 [1]: 1 to 100 nM; Selectivity (motilin receptor): 1044/1; Ki [2, 5]: 0.1 to 10 nM; Ki [2, 4]: 0.1 to 10 nM

How did the Selectivity (motilin receptor) turn out when `CCCCC1NCCOc2ccccc2CCCNC(=O)C(Cc2ccccc2)NC(=O)CN(C)C1=O` (centres unmarked) [Compound 1] was run?
Its Selectivity is 142/1.

For `CCCC1NCCOc2ccccc2CCCNC(=O)C(Cc2ccccc2)NC(=O)C(C)N(C)C1=O` (centres unmarked) [Compound 4], which EC50 [1] is on record?
The EC50 was 1 to 100 nM.

And the Selectivity (motilin receptor)?
The Selectivity was 3012/1.

What about the Ki [2, 5] of the same compound?
The Ki was 10 to 100 nM.

And the Ki [2, 4]?
The Ki was 10 to 100 nM.

`CCCC1NCCOc2ccccc2CCCNC(=O)C(Cc2ccc(O)cc2)NC(=O)CN(C)C1=O` (centres unmarked) [compound 7] was tested. Which Selectivity (motilin receptor) did it give?
The Selectivity was >100/1.

How did the Selectivity (motilin receptor) turn out when `CC(C)C1NCCOc2ccccc2C=CCNC(=O)C(Cc2ccccc2)NC(=O)C(C)N(C)C1=O` (centres unmarked) [compound 19] was run?
Its Selectivity is >1700/1.

What about the Ki [2, 4] of the same compound?
The Ki was 100 to 1000 nM.

With `CC[C@H](C)[C@@H]1NCCOc2ccccc2CCCNC(=O)[C@@H](Cc2cccc(Cl)c2)NC(=O)[C@@H](C)N(C)C1=O` [compound 24] as the compound, how does the Selectivity (motilin receptor) read?
The Selectivity was 3039/1.

And the Ki [2, 5]?
The Ki was 0.1 to 10 nM.

What about the Ki [2, 4] of the same compound?
The Ki was 0.1 to 10 nM.

With `CCC(C)C1NCCOc2ccccc2CCCNC(=O)C(Cc2cccs2)NC(=O)C(C)N(C)C1=O` (centres unmarked) [compound 34] as the compound, how does the Selectivity (motilin receptor) read?
The Selectivity was >1000/1.

With `CCCC1NCCOc2ccccc2C=CCNC(=O)C(Cc2ccccc2)NC(=O)C(C)N(C)C1=O` (centres unmarked) [compound 39] as the compound, how does the Selectivity (motilin receptor) read?
The Selectivity was 3400/1.

`CCC(C)C1NCCOc2ccccc2C=CCNC(=O)C(Cc2ccccc2)NC(=O)C(C)N(C)C1=O` (centres unmarked) [compound 40] was tested. Which Selectivity (motilin receptor) did it give?
Its Selectivity is >3300/1.

For `CCC(C)C1NCCOc2ccccc2CCCNC(=O)C(Cc2ccccc2)NC(=O)C(C)N(CC)C1=O` (centres unmarked) [compound 43], which Selectivity (motilin receptor) is on record?
The Selectivity was 3700/1.

What about the Ki [2, 5] of the same compound?
The Ki was 10 to 100 nM.

And the Ki [2, 4]?
The Ki was 10 to 100 nM.

With `CCC(C)C1NCCOc2ccccc2CCCNC(=O)C(CC(C)C)NC(=O)C(C)N(C)C1=O` (centres unmarked) [compound 176] as the compound, how does the Selectivity (motilin receptor) read?
Its Selectivity is 105/1.

With `CCC(C)C1NCCOc2cccnc2CCCNC(=O)C(Cc2ccccc2)NC(=O)C(C)N(C)C1=O` (centres unmarked) [compound 177] as the compound, how does the Selectivity (motilin receptor) read?
Its Selectivity is >100/1.

How did the Selectivity (motilin receptor) turn out when `CCC(C)C1NCCOc2ccc(C(=O)O)cc2CCCNC(=O)C(Cc2ccccc2)NC(=O)C(C)N(C)C1=O` (centres unmarked) [compound 197] was run?
The Selectivity was 100/1.

What does the source list for `C[C@@H]1C(=O)N[C@H](Cc2ccc(O)c(C(C)(C)C)c2)C(=O)NCCCc2ccccc2OCCN[C@@H](C2CC2)C(=O)N1C` [compound 311]?
Selectivity (motilin receptor): 21/1; Ki [2, 4]: 10 to 100 nM

How did the EC50 [1] turn out when `O=C1NC/C=C/c2ccccc2OCCN[C@@H](C2CC2)C(=O)NC2(CCCC2)C(=O)N[C@H]1Cc1cccc(Cl)c1` [compound 346] was run?
The EC50 was 1 to 100 nM.

What about the Ki [2, 3] of the same compound?
The Ki was 10 to 100 nM.

What about the Ki [2, 4] of the same compound?
Its Ki is 10 to 100 nM.

How did the Selectivity (motilin receptor) turn out when `CCC(C)C1NCCCCCCCCNC(=O)C(Cc2cccc(Cl)c2)NC(=O)C2(CCCC2)NC1=O` (centres unmarked) [compound 363] was run?
The Selectivity was 35/1.

With `CC1C(=O)NC(Cc2ccc(F)cc2)C(=O)NCCCc2cc(NS(C)(=O)=O)ccc2OCCNC(C2CC2)C(=O)N1C` (centres unmarked) [compound 374] as the compound, how does the Selectivity (motilin receptor) read?
Its Selectivity is 250/1.

How did the Selectivity (motilin receptor) turn out when `CCC(C)C1NCCOc2ccc(F)cc2CCCNC(=O)C(Cc2cccc(Cl)c2)NC(=O)C2(CCCC2)NC1=O` (centres unmarked) [compound 382] was run?
Its Selectivity is 74/1.

Which Selectivity (motilin receptor) does the source give for `CCC(C)C1NCCOc2ccccc2C2CC2CNC(=O)C(Cc2cccc(Cl)c2)NC(=O)C2(CCCC2)NC1=O` (centres unmarked) [compound 388] here?
The Selectivity was 400/1.

With `CC1COc2ccccc2CCCNC(=O)C(Cc2ccc(F)cc2)NC(=O)C(C)N(C)C(=O)C(C2CC2)N1` (centres unmarked) [compound 394] as the compound, how does the Selectivity (motilin receptor) read?
The Selectivity was 1700/1.

For `CCC(C)C1NCCOc2ccccc2CCCNC(=O)C(Cc2ccc(O)cc2)NC(=O)C(C)N(C)C1=O` (centres unmarked) [compound 445], which EC50 [1] is on record?
Its EC50 is 1 to 100 nM.

What about the Ki [2, 4] of the same compound?
The Ki was 10 to 100 nM.

And the Ki ([2]; second table titled 3C (compounds 435-449), human ghrelin receptor)?
The Ki was 10 to 100 nM.
